Reference: PubChem BioAssay AID1996
Converted amounts (≈) assume the structure as drawn.

Conditions: buffer; pH 7.4; 200.0 µM
In the case of `Cc1ccc(CCS(=O)(=O)c2ccc(C(C)(C)C)cc2)cn1`, the solubility kinetic is reported as over 47.6 µg/mL.
`CCCc1nc2c(sc3nc4c(cc32)COC(C)(C)C4)c(=O)o1` showed a solubility kinetic of 24.1 µg/mL (≈ 72.9 µM).
With `CSc1ncccc1C(=O)Nc1nc2ccc(F)cc2s1` the solubility kinetic was 1.8 µg/mL (≈ 5.64 µM).
`O=C(COc1ccccc1O)NC1CCCC1` gave a solubility kinetic of over 35.3 µg/mL.
In the case of `O=C(O)C1CCCCC1C(=O)NCc1ccccn1` (stereo unspecified), the solubility kinetic is reported as over 39.3 µg/mL.
`Cc1ccccc1N(CC(=O)N1CCCCCC1)S(C)(=O)=O` showed a solubility kinetic of over 48.7 µg/mL.
`Cn1c(N)c(C(=O)COc2ccc(C#N)cc2)c(=O)n(C)c1=O` gave a solubility kinetic of 9.4 µg/mL (≈ 29.9 µM).
`Cc1ccc(S(=O)(=O)NCC(=O)NC2CC2)cc1` gave a solubility kinetic of over 40.2 µg/mL.
Work on `COc1ccc(/C=C/C(=O)N(C)C2CCCCC2)cc1Br` yielded a solubility kinetic of 18 µg/mL (≈ 51.1 µM).
In the case of `O=C1NC(c2ccc(O)cc2)Nc2ccccc21` (stereo unspecified), the solubility kinetic is reported as 29.2 µg/mL (≈ 122 µM).
Work on `C[C@H](NC(N)=O)C(=O)OCC(=O)NCc1cccs1` yielded a solubility kinetic of over 42.8 µg/mL.
`COc1ccc(/C=C/C(=O)NCCCN2CCCCCC2)cc1` showed a solubility kinetic of over 47.5 µg/mL.
In the case of `CCC(=O)NC1(C(F)(F)F)C(=O)Nc2c1c(=O)[nH]c(=O)n2CC(C)C` (stereo unspecified), the solubility kinetic is reported as 54 µg/mL (≈ 149 µM).
For `CC1(C)CC(=O)C(C=Nc2ccc(N)cc2)=C(O)C1`, the solubility kinetic was over 38.7 µg/mL.
With `O=C(/C=C/c1cccs1)NCc1ccc2c(c1)OCO2` the solubility kinetic was 6.3 µg/mL (≈ 21.9 µM).
`COc1cc(OC)c(C(=O)OCC(=O)NC2CCCC2)cc1OC` showed a solubility kinetic of over 50.6 µg/mL.
With `CC(C)C/C(=N/O)c1cn(C)c2ccccc12` the solubility kinetic was 21.5 µg/mL (≈ 93.4 µM).
Compound `COc1ccccc1CNC(=O)COC(=O)c1ccc(Cl)nc1` has a solubility kinetic of over 50.2 µg/mL.
In the case of `O=C1/C(=C\c2cccnc2)N2CCC1CC2`, the solubility kinetic is reported as over 32.1 µg/mL.
`CCOc1ccc(-n2c(C)c(C(C)=O)c3cc(O)ccc32)cc1` showed a solubility kinetic of under 0.7 µg/mL.
`CSc1cccc(NC(=S)NC(=O)c2cccnc2)c1` showed a solubility kinetic of 5.1 µg/mL (≈ 16.8 µM).
With `CN1CCN(C(=O)c2cc3cc(F)ccc3[nH]2)CC1` the solubility kinetic was over 39.2 µg/mL.
`C=CCn1c(O)c(C(CC)=NCC2CCCO2)c(=O)[nH]c1=O` (stereo unspecified) gave a solubility kinetic of over 46.1 µg/mL.
Work on `COc1ccc(NC(=O)NC(c2ccccc2)c2ccccc2)c(OC)c1` yielded a solubility kinetic of under 0.4 µg/mL.
`NS(=O)(=O)c1ccc(CNc2ccc3ccccc3n2)cc1` gave a solubility kinetic of 12.8 µg/mL (≈ 40.8 µM).
In the case of `Nc1cc(N)nc(SCc2ccc(Cl)cc2)n1`, the solubility kinetic is reported as over 40 µg/mL.
Work on `COC(=O)c1c(C)oc(C)c1S(=O)(=O)NCc1ccco1` yielded a solubility kinetic of over 47 µg/mL.
Work on `CCOC(=O)C(=CNc1cc(C)ccc1-n1cccc1)C(=O)OCC` yielded a solubility kinetic of 0.7 µg/mL (≈ 2.04 µM).
`O=C(O)CC(c1ccc(Cl)cc1)N1Cc2ccccc2C1=O` (stereo unspecified) showed a solubility kinetic of over 47.4 µg/mL.
With `CCN(C(=O)COc1ccc(C(C)=O)cc1)c1cccc2ccccc12` the solubility kinetic was 43.2 µg/mL (≈ 124 µM).
For `N#CCSc1nc2ccccc2c(=O)n1CCCC(=O)NCC1CCCO1` (stereo unspecified), the solubility kinetic was 47.7 µg/mL (≈ 123 µM).
`CS(=O)(=O)Nc1ccc2c(c1)ncn2CCc1ccccc1` gave a solubility kinetic of over 47.3 µg/mL.
Compound `Nc1ccc(CCn2ccnc2)cc1` has a solubility kinetic of over 28.1 µg/mL.
For `O=C(O)c1ccc(N=Cc2nc(-c3ccco3)oc2O)cc1`, the solubility kinetic was over 44.7 µg/mL.
With `O=C(O)c1ccccc1NS(=O)(=O)c1cccc(NS(=O)(=O)c2cc(Br)ccc2Br)c1` the solubility kinetic was over 88.5 µg/mL.
`O=C(NCCN1CCCCC1)Nc1ccccc1F` gave a solubility kinetic of over 39.8 µg/mL.
Work on `O=C(Cn1c(CO)nc2ccccc21)NCCc1ccccc1` yielded a solubility kinetic of over 46.4 µg/mL.
Work on `Cc1cccc(-n2c(-c3ccc(Br)o3)n[nH]c2=S)c1` yielded a solubility kinetic of over 50.4 µg/mL.
`CCN(CC(=O)Nc1c(F)cccc1F)C(=O)Cc1c[nH]c2ccccc12` gave a solubility kinetic of over 55.7 µg/mL.
In the case of `Cc1oc(C(N)=O)cc1COc1ccc(C(N)=O)cc1`, the solubility kinetic is reported as 32.9 µg/mL (≈ 120 µM).
For `Brc1ccc(CN2CCCCCC2)cc1`, the solubility kinetic was 12.5 µg/mL (≈ 46.6 µM).
`O=C1CNC(=O)/C(=C\c2ccccc2)N1` showed a solubility kinetic of over 30.3 µg/mL.
Compound `COc1ccccc1OC(C)C(=O)N1CCC(Cc2ccccc2)CC1` (stereo unspecified) has a solubility kinetic of 50.9 µg/mL (≈ 144 µM).
For `CCOC(=O)c1c(/N=C/C2=C(O)CCCC2=O)sc2c1CCCC2`, the solubility kinetic was 3.6 µg/mL (≈ 10.4 µM).
In the case of `COC(=O)C(C(=O)OC)c1ncccc1[N+](=O)[O-]`, the solubility kinetic is reported as over 38.1 µg/mL.
In the case of `COc1cc(NC(=S)N2CCN(C)CC2)cc(OC)c1`, the solubility kinetic is reported as over 44.3 µg/mL.
`O=C(Nc1ccc2nccnc2c1)c1ccco1` gave a solubility kinetic of over 35.9 µg/mL.
`CN1C(=O)NC(c2ccc(O)cc2)C2=C1CN(c1ccc(O)cc1)C2=O` (stereo unspecified) gave a solubility kinetic of over 52.7 µg/mL.
Work on `CN(C)CCOC(c1ccc(Cl)cc1)c1ccccn1.O=C(O)/C=C/C(=O)O` (stereo unspecified) yielded a solubility kinetic of over 61 µg/mL.
`COc1cc(NC(=S)Nc2ccc(OC(F)F)cc2)cc(OC)c1` showed a solubility kinetic of 23.9 µg/mL (≈ 67.4 µM).
For `O=c1[nH]cc(S(=O)(=O)N2CCOCC2)c(=O)[nH]1`, the solubility kinetic was over 39.2 µg/mL.
Compound `CCOc1ccc(N2C(=O)c3ccccc3NC2(C)CC)cc1` (stereo unspecified) has a solubility kinetic of over 46.6 µg/mL.
For `CC(OC(=O)c1ccc(Cl)nc1)C(=O)Nc1ccc2c(c1)OCO2` (stereo unspecified), the solubility kinetic was 11.9 µg/mL (≈ 34.1 µM).
With `O=C(C1COc2ccccc2O1)N1CCCCC1` (stereo unspecified) the solubility kinetic was over 37.1 µg/mL.
`NC(=O)C1CCN(C(=O)c2ccc(Cl)c(S(=O)(=O)N3CCCCCC3)c2)CC1` gave a solubility kinetic of over 64.2 µg/mL.
With `Br.CC(C)(C)c1ccc(C2=CSC3=NCCN23)cc1` the solubility kinetic was 49.4 µg/mL.
`Cc1ccc(C)c(NC(=O)C2CCCC2)c1` gave a solubility kinetic of over 32.6 µg/mL.
For `Cc1ccc(NC(=O)N2CCc3ccccc3C2)cc1C`, the solubility kinetic was 0.9 µg/mL (≈ 3.21 µM).
Work on `Cl.Oc1cc2c(cc1O)C(c1ccccc1)CNCC2` (stereo unspecified) yielded a solubility kinetic of over 43.8 µg/mL.
Compound `O=C(NC1CCCCC1)c1ccc(-c2cccc([N+](=O)[O-])c2)o1` has a solubility kinetic of 2.8 µg/mL (≈ 8.91 µM).
Compound `COc1ccc2c(c1)C(=O)C(=O)N2CC1COc2ccccc2O1` (stereo unspecified) has a solubility kinetic of 1.7 µg/mL (≈ 5.23 µM).
With `Cc1c(C(=O)N2CCC2)oc2ccc(Cl)cc12` the solubility kinetic was 15.6 µg/mL (≈ 62.5 µM).
Work on `CCOC(=O)CNC(=O)Cn1cnc2c(oc3ccccc32)c1=O` yielded a solubility kinetic of over 49.4 µg/mL.
Compound `O=C(Nc1ccc(C(F)(F)F)cc1)OC1CN2CCC1CC2` (stereo unspecified) has a solubility kinetic of 45.1 µg/mL (≈ 143 µM).
`N#Cc1nc(-c2ccc(F)cc2)oc1NCCCn1ccnc1` gave a solubility kinetic of 2.5 µg/mL (≈ 8.03 µM).
In the case of `O=C(Nc1ccc(F)cc1F)Nc1sccc1-c1nc2ccccc2s1`, the solubility kinetic is reported as 0.3 µg/mL (≈ 0.774 µM).
Work on `COc1ccc(O)c(/C=N/c2sc(C)c(C)c2C#N)c1` yielded a solubility kinetic of 1 µg/mL (≈ 3.49 µM).
In the case of `S=C1NCN(Cc2cccnc2)CN1c1cccc(Cl)c1`, the solubility kinetic is reported as over 47.8 µg/mL.
`COc1ccc(NC(=S)N2CCCC2)cc1OC` gave a solubility kinetic of over 40 µg/mL.
Compound `Cc1c(N=Cc2c(O)n(C)c(=O)[nH]c2=O)c(=O)n(-c2ccccc2)n1C` has a solubility kinetic of over 53.3 µg/mL.
With `COc1ccc(Sc2nc(-c3ccccc3)ncc2OC)cc1` the solubility kinetic was under 0.3 µg/mL.
In the case of `O=C(NCc1ccc(Cl)cc1)c1ccncc1`, the solubility kinetic is reported as over 37 µg/mL.
In the case of `COC(=O)c1scc(S(=O)(=O)C(C)(C)C)c1-n1cccc1`, the solubility kinetic is reported as 35.6 µg/mL (≈ 109 µM).
For `CCCCCNC(=O)[C@@H]1CSC2c3ccccc3C(=O)N21` (stereo partly specified), the solubility kinetic was 27.7 µg/mL (≈ 91 µM).
`COc1ccc(CCNC(=O)C2CCCN(c3ncccn3)C2)cc1` (stereo unspecified) showed a solubility kinetic of 49 µg/mL (≈ 144 µM).
`O=C(O)c1ccccc1NCc1ccsc1` showed a solubility kinetic of over 35 µg/mL.
In the case of `Cc1ccc(-n2c(O)c(C=NCc3ccco3)c(=O)[nH]c2=S)cc1C`, the solubility kinetic is reported as 11.1 µg/mL (≈ 31.2 µM).
`CCOC(=O)c1ccccc1NC(=O)Cc1ccc(OC)c(S(=O)(=O)N2CCOCC2)c1` gave a solubility kinetic of 60.4 µg/mL (≈ 131 µM).
Work on `CCCC(C(=O)Nc1ccncc1)c1ccccc1` (stereo unspecified) yielded a solubility kinetic of over 38.1 µg/mL.
Compound `CC(=O)c1ccc(N2CCN(C(=O)c3cc(S(=O)(=O)N4CCOCC4)ccc3C)CC2)cc1` has a solubility kinetic of over 70.7 µg/mL.
Compound `O=C(NCCOc1ccc(Cl)cc1)C(=O)NCC1CCCO1` (stereo unspecified) has a solubility kinetic of 33.6 µg/mL (≈ 103 µM).
`COc1ccc(CCC(=O)Nc2ccc(C(=O)c3ccncc3)cc2)cc1` gave a solubility kinetic of 3.8 µg/mL (≈ 10.5 µM).
With `COc1ccc2c(c1)c(C(=O)CN1CCCCC1)c(C)n2C` the solubility kinetic was 44.3 µg/mL (≈ 147 µM).
`Cc1noc(C)c1C(=O)NC(Cc1c[nH]c2ccccc12)C(=O)O` (stereo unspecified) showed a solubility kinetic of over 49.1 µg/mL.
With `CCCCCOC(=O)C1=C(C)NC(=O)NC1c1ccccc1` (stereo unspecified) the solubility kinetic was 4.9 µg/mL (≈ 16.2 µM).
`CCCCCC(=O)NC(=S)NC1C2CC3CC(C2)CC1C3` (stereo unspecified) gave a solubility kinetic of 28.3 µg/mL (≈ 91.7 µM).
